pIC50: −log10 of the molar value.
What was measured:
KRAS G12D = KRAS G12D (Homo sapiens, UniProt P01116, G12D); test: SOS-catalyzed nucleotide exchange assay, KRAS G12D (Procedure A); assay type: biochemical; conditions: guanine nucleotide exchange (GNE)
In short: (§1)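 Preformed TR-FRET complex of biotinylated KRAS (G12C carries C51S/C80L/C118S; others native sequence), Bodipy-GDP and Tb-streptavidin preincubated with compound 60 min at room temperature. Exchange started with human SOS plus 3 mM GTP for 60 min (G13D 30 min). Final RAS/SOS: G12C 3/40 nM; WT, G12D 1/40 nM; G13D 1.25/0 nM. 520/495 nm ratio normalised, fitted to four-parameter logistic.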

KRAS WT = KRAS WT (Homo sapiens, UniProt P01116); test: SOS-catalyzed nucleotide exchange assay, KRAS WT (Procedure A); assay type: biochemical; conditions: GNE
Sequence of KRAS WT (P01116 with tags, fused parts or gaps isoform P01116-2): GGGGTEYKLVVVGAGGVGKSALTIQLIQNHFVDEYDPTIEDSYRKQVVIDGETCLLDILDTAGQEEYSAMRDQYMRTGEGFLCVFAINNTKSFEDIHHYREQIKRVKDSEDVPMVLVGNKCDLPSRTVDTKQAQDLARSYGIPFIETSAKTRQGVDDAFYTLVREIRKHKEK
In short: as §1

KRAS G12V = KRAS G12V (Homo sapiens, UniProt P01116, G12V); test: SOS-catalyzed nucleotide exchange assay, KRAS G12V (Procedure A); assay type: biochemical; conditions: GNE
Sequence of KRAS G12V (P01116 with tags, fused parts or gaps isoform P01116-2 G12V): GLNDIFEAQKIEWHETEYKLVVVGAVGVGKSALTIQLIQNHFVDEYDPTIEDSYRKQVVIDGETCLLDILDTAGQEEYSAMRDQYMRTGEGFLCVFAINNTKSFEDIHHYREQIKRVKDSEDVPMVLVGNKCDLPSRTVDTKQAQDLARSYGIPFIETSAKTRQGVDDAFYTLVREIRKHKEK
In short: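 Biotinylated KRAS G12V was loaded with Bodipy-GDP alongside Terbium-streptavidin to form a TR-FRET complex, which was preincubated with compounds for 60 minutes in 384-well plates. Human SOS protein and unlabeled GTP were then added for 90 minutes, giving final concentrations of 1.25 nM KRAS-G12V, 160 nM SOS and 3 mM GTP. The 520/495 nm emission ratio was read on an Envision.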

PANC08.13 cells = target: T1, PANC08.13 cells (Homo sapiens, UniProt P01116, G12D); test: Cellular phospho-ERK assay, PANC08.13 cells (KRAS G12D); assay type: cell-based; conditions: 2 hours, read-out: PANCO 813 pERK IC50
T1 construct: p-ERK/total ERK AlphaSureFire read-out
T1 sequence (P01116 1-188 isoform P01116-2 G12D): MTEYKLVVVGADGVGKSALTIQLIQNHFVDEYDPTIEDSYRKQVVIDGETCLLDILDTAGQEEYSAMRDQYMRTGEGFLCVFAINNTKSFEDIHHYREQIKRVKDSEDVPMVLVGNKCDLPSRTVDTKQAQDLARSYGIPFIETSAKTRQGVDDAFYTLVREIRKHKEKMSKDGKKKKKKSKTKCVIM
Protocol: Procedure for Cellular Phospho-ERK Assay in KRAS Wild Type and Mutant (G12D, G12V) Cell Lines
PANC08.13 cells (ATCC® CRL-2551™), containing homozygous KRAS-G12D activating mutation, were cultured in growth medium made of RPMI1640-GlutaMAX™-I (ThermoFisher Scientific 61870) containing 15% heat inactivated fetal bovine serum (ThermoFisher Scientific 10091148)). AsPC-1 cells (ATCC® CRL-1682™), containing homozygous KRAS-G12D activating mutation, were cultured in T150 flask in growth medium (RPMI medium 1640-GlutaMAX™-I (ThermoFisher Scientific 61870) containing 10% fetal bovine serum (ThermoFisher Scientific 10091148)).
Cells for the assay were harvested in growth medium after TrypLE (ThermoFisher scientific 12604021) digestion and were seeded in a 384-well collagen coated cell culture plate (Corning 356702) at a density of 10,000-15,000 cells/20 μL/well, and incubated at 37° C., 5% CO2 overnight. The compound (with 10 mM stock concentration) dose-response titrations were prepared [30 μM final ERK detection assay concentration and 1:3 dilutions, 10-point dose response] and appropriate amounts (270 nL) of test compounds were dispensed in a 384-well intermediate plate using an Echo 550 liquid handler. 30 μL/well of RPMI medium 1640-GlutaMAX™-I was added to the intermediate plate and the contents of the intermediate plate (10 μL/well) were then transferred to the 384-well collagen coated cell culture plate, which was incubated at 37° C., 5% CO2 for 2 hours. After removal of medium from the collagen coated cell culture plate, cells were lysed in lysis buffer from Alpha SureFire® Ultra™ Multiplex p-ERK and total ERK assay kit (PerkinElmer MPSU-PTERK) containing Halt™ Protease and Phosphatase inhibitor cocktail (ThermoFisher Scientific 78446) at room temperature with constant shaking at 300 rpm for 30 minutes. The cell lysates were then transferred to an OptiPlate-384 plate (PerkinElmer 6005620), and the phosphorylation of ERK (p-ERK) and total ERK levels were detected by Alpha SureFire® Ultra™ Multiplex p-EEK kit and total ERK assay kit (PerkinElmer MPSU-PTERK) following the manufacturer's protocol. Assay plates were read on a EnVision Multimode Plate Reader (PerkinElmer), and the ratio of p-ERK vs. total ERK in each well was used as the final readout. Dose response curves were analyzed using a 4-parameter logistic model to calculate IC50 values using Spotfire software.

KRAS G12C = KRAS G12C (Homo sapiens, UniProt P01116, C118S/C51S/C80L/G12C); test: SOS-catalyzed nucleotide exchange assay, KRAS G12C (Procedure A); assay type: biochemical; conditions: GNE
Sequence of KRAS G12C (P01116 with tags, fused parts or gaps isoform P01116-2 G12C/C51S/C80L/C118S): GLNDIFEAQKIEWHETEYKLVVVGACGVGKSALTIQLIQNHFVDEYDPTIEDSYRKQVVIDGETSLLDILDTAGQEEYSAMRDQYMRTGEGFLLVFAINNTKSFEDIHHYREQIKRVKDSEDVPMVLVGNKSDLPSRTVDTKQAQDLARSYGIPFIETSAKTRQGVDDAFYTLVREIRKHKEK
In short: as §1

KRAS G13D = KRAS G13D (Homo sapiens, UniProt P01116, G13D); test: SOS-catalyzed nucleotide exchange assay, KRAS G13D (Procedure A); assay type: biochemical; conditions: GNE
Sequence of KRAS G13D (P01116 with tags, fused parts or gaps isoform P01116-2 G13D): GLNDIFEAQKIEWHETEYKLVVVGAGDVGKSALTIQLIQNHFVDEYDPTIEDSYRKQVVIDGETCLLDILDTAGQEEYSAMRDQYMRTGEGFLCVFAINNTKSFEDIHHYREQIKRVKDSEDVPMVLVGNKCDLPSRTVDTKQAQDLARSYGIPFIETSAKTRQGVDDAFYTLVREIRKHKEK
In short: as §1

HRAS = HRAS (Homo sapiens, UniProt P01112); test: SOS-catalyzed nucleotide exchange assay, HRAS (Procedure A); assay type: biochemical; conditions: GNE
Sequence of HRAS (P01112 with tags, fused parts or gaps): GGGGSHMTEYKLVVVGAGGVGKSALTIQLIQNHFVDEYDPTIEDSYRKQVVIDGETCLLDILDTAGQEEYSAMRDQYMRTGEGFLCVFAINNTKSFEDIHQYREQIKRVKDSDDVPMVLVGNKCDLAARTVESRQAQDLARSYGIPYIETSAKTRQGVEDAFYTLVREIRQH
In short: (§2)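 Compounds were preincubated 60 min with a biotinylated RAS·Bodipy-GDP/Tb-streptavidin TR-FRET complex, and exchange was started with human SOS plus 3 mM GTP at RT. RAS/SOS: G12C 3 nM/40 nM, WT and G12D 1 nM/40 nM, all 60 min; G13D 1.25 nM/0 nM, 30 min. 520/495 ratio normalized to DMSO and saturating inhibitor, four-parameter fit.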

NRAS = NRAS (Homo sapiens, UniProt P01111); test: SOS-catalyzed nucleotide exchange assay, NRAS (Procedure A); assay type: biochemical; conditions: GNE
Sequence of NRAS (P01111 with tags, fused parts or gaps): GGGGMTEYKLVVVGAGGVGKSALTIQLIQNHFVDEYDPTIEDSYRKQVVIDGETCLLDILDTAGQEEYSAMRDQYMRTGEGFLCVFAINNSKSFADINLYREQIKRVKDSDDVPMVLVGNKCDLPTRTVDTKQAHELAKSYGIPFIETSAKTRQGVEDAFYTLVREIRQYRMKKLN
In short: as §2

Sequence of KRAS G12D (P01116 with tags, fused parts or gaps isoform P01116-2 G12D): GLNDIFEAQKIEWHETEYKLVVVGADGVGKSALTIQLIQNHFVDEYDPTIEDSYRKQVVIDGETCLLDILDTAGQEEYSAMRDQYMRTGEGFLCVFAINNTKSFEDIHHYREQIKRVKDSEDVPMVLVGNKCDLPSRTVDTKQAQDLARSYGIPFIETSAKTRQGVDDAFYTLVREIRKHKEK

SMILES	pIC50 (KRAS G12D)	pIC50 (KRAS WT)	pIC50 (KRAS G12V)	pIC50 (PANC08.13 cells)	pIC50 (KRAS G12C)	pIC50 (KRAS G13D)	pIC50 (HRAS)	pIC50 (NRAS)
CCn1c2nc(OC[C@@]34CCCN3C[C@H](F)C4)nc(N3C[C@H]4CC[C@@H](C3)N4)c2c2ccnc(-c3c(C(F)(F)F)c(C)cc4[nH]ncc34)c21 [Ex-11, 4-((1R,5S)-3,8-diazabicyclo[3.2.1]octan-3-yl)-9-ethyl-2-(((2R,7aS)-2-fluorotetrahydro-1H-pyrrolizin-7a(5H)-yl)methoxy)-8-(6-methyl-5-(trifluoromethyl)-1H-indazol-4-yl)-9H-pyrido[4′,3′:4,5]pyrrolo[2,3-d]pyrimidine]	6.16	< 4.95	< 4.95	5.61				
N#Cc1c(N)sc2c(F)ccc(-c3nccc4c3sc3nc(OC[C@@]56CCCN5C[C@H](F)C6)nc(N5C[C@H]6CC[C@@H](C5)N6)c34)c12 [Ex-17, 4-(4-((1R,5S)-3,8-diazabicyclo[3.2.1]octan-3-yl)-2-(((2R,7aS)-2-fluorotetrahydro-1H-pyrrolizin-7a(5H)-yl)methoxy)pyrido[4′,3′:4,5]thieno [2,3-d]pyrimidin-8-yl)-2-amino-7-fluorobenzo[b] thiophene-3-carbonitrile]	7.62	< 4.95	< 4.95	5.79	< 4.96	< 4.96	< 4.96	< 4.96
Nc1nc2c(-c3nccc4c3sc3nc(OC[C@@]56CCCN5C[C@H](F)C6)nc(N5C[C@H]6CC[C@@H](C5)N6)c34)c(F)cc(F)c2o1 [Ex-15, 4-(4-((1R,5S)-3,8-diazabicyclo[3.2.1]octan-3-yl)-2-(((2R,7aS)-2-fluorotetrahydro-1H-pyrrolizin-7a(5H)-yl)methoxy)pyrido[4′,3′:4,5]thieno [2,3-d]pyrimidin-8-yl)-5,7-difluorobenzo[d]oxazol-2-amine]	5.30	< 4.95	< 4.95	< 5.00	< 4.96	< 4.96	< 4.96	< 4.96
C#Cc1c(F)ccc2cc(N)nc(-c3nccc4c5c(N6C[C@H]7CC[C@@H](C6)N7)nc(OC[C@@]67CCCN6C[C@H](F)C7)nc5n(C)c34)c12 [Ex-7, 1-(4-((1R,5S)-3,8-diazabicyclo[3.2.1]octan-3-yl)-2-(((2R,7aS)-2-fluorotetrahydro-1H-pyrrolizin-7a(5H)-yl)methoxy)-9-methyl-9H-pyrido[4′,3′:4,5]pyrrolo[2,3-d]pyrimidin-8-yl)-8-ethynyl-7-fluoroisoquinolin-3-amine]	7.29	< 4.95	< 4.95	6.24	< 4.96	5.84	< 4.96	< 4.96
Nc1nc2c(-c3nccc4c3sc3nc(OC[C@@]56CCCN5C[C@H](F)C6)nc(N5C[C@H]6CC[C@@H](C5)N6)c34)ccc(F)c2s1 [Ex-16, 4-(4-((1R,5S)-3,8-diazabicyclo[3.2.1]octan-3-yl)-2-(((2R,7aS)-2-fluorotetrahydro-1H-pyrrolizin-7a(5H)-yl)methoxy)pyrido[4′,3′:4,5]thieno [2,3-d]pyrimidin-8-yl)-7-fluorobenzo[d]thiazol-2-amine]	6.55	< 4.95	< 4.95	5.01				
Cc1cc2[nH]ncc2c(-c2nccc3c2sc2nc(OCC4(CO)CCC4)nc(N4C[C@H]5CC[C@@H](C4)N5)c23)c1C(F)F [Ex-64, (1-(((4-((1R,5S)-3,8-diazabicyclo[3.2.1]octan-3-yl)-8-(5-(difluoromethyl)-6-methyl-1H-indazol-4-yl)pyrido[4′,3′:4,5]thieno[2,3-d]pyrimidin-2-yl)oxy)methyl)cyclobutyl)methanol]	5.03	< 4.95	< 4.95	< 5.00				
Cc1cc2[nH]ncc2c(-c2nccc3c2sc2nc(OC[C@]4(CO)CC4(F)F)nc(N4C[C@H]5CC[C@@H](C4)N5)c23)c1OC(F)(F)Cl [Ex-52, ((1R)-1-(((4-((1R,5S)-3,8-diazabicyclo[3.2.1]octan-3-yl)-8-(5-(chlorodifluoromethoxy)-6-methyl-1H-indazol-4-yl)pyrido[4′,3′:4,5]thieno[2,3-d]pyrimidin-2-yl)oxy)methyl)-2,2-difluorocyclopro-pyl)methanol]	6.14	< 4.95	< 4.95	5.56				
N#Cc1c(N)sc2c(F)ccc(-c3nccc4c3sc3nc(OC[C@]5(CO)CC5(F)F)nc(N5CC6CCC(C5)N6)c34)c12 [Ex-60, 4-(4-(3,8-diazabicyclo[3.2.1]octan-3-yl)-2-(((R)-2,2-difluoro-1-(hydroxymethyl)cyclopropyl)methoxy)pyrido[4′,3′:4,5]thieno[2,3-d]pyrimidin-8-yl)-2-amino-7-fluorobenzo[b]thiophene-3-carbonitrile]	5.57	< 4.95	< 4.95	5.00				
Cc1cc2[nH]ncc2c(-c2nccc3c2sc2nc(OC[C@]4(CO)CC4(F)F)nc(N4C[C@H]5CC[C@@H](C4)N5)c23)c1OC(F)F [Ex-51, ((1R)-1-(((4-((1R,5S)-3,8-diazabicyclo[3.2.1]octan-3-yl)-8-(5-(difluoromethoxy)-6-methyl-1H-indazol-4-yl)pyrido[4′,3′:4,5]thieno[2,3-d]pyrimidin-2-yl)oxy)methyl)-2,2-difluorocyclopropyl)methanol]	5.67	< 4.95	< 4.95	5.17				
N#Cc1c(N)sc2c(F)cc(F)c(-c3nccc4c3sc3nc(OC[C@]5(CO)CC5(F)F)nc(N5C[C@H]6CC[C@@H](C5)N6)c34)c12 [Ex-61, 4-(4-((1R,5S)-3,8-diazabicyclo[3.2.1]octan-3-yl)-2-(((R)-2,2-difluoro-1-(hydroxymethyl)cyclopro-pyl)methoxy)pyrido[4′,3′: 4,5]thieno[2,3-d]pyrimidin-8-yl)-2-amino-5,7-difluorobenzo[b]thiophene-3-carbonitrile]	6.07	< 4.95	< 4.95	5.13				
Cc1cc2[nH]nc(C#N)c2c(-c2nccc3c2sc2nc(OC[C@@]45CCCN4C[C@H](F)C5)nc(N4C[C@H]5CC[C@@H](C4)N5)c23)c1C(F)F [Ex-18, 4-(4-((1R,5S)-3,8-diazabicyclo[3.2.1]octan-3-yl)-2-(((2R,7aS)-2-fluorotetrahydro-1H-pyrrolizin-7a(5H)-yl)methoxy)pyrido[4′,3′:4,5]thieno[2,3-d]pyrimidin-8-yl)-5-(difluoromethyl)-6-methyl-1H-indazole-3-carbonitrile]	6.91	< 4.95	< 4.95	6.18				

Source: US20260347372A1, “SMALL MOLECULE INHIBITORS OF KRAS G12D MUTANT” (MERCK SHARP & DOHME LLC, priority 2023, published 2026)
